Measurements reported in ChEMBL document CHEMBL1201862, “PubChem BioAssay data set” (2004).
Several values for one entry are separate records, joined by “and”; a condition that tells them apart may be missing. Equal values may be shown once.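 How tested: cells in 96-well plates exposed to compound for 48 hours at five concentrations. GI50: concentration for 50% inhibition of growth.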 Activity calls are given as the source filed them. Rule as the data show it: active = GI50 up to about 1.1 µM and inactive = higher.

Columns and labels:
Assay in all cases: NCI tumour cell line growth inhibition, 48 h
[1] = test system: HL-60
[2] = test system: SK-OV-3
[3] = test system: SK-MEL-28
[4] = test system: EKVX
[5] = test system: A498
[6] = test system: SW-620
[7] = test system: UACC-257
[8] = test system: Malme-3M
[9] = test system: MDA-MB-231
[10] = test system: COLO 205
[11] = test system: HOP-92
[12] = test system: SK-MEL-2
[13] = test system: NCI-H460
[14] = test system: MOLT-4
[15] = test system: MDA-N
[16] = test system: HT-29
[17] = test system: OVCAR-4
[18] = test system: RXF 393
[19] = test system: MCF7
[20] = test system: HCT-116

SMILES | GI50 [1] | GI50 [2] | GI50 [3] | GI50 [4] | GI50 [5] | GI50 [6] | GI50 [7] | GI50 [8] | GI50 [9] | GI50 [10] | GI50 [11] | GI50 [12] | GI50 [13] | GI50 [14] | GI50 [15] | GI50 [16] | GI50 [17] | GI50 [18] | GI50 [19] | GI50 [20]
Cc1ccc(Nc2nc(=O)c3c([nH]c4ccccc43)s2)cc1 | 14.8 µM (inactive) | 28.1 µM (inactive) | 21.2 µM (inactive) | 27.8 µM (inactive) | 18.1 µM (inactive) | 10.8 µM (inactive) | 17.1 µM (inactive) | 10.6 µM (inactive) | 17.1 µM (inactive) | 10.9 µM (inactive) | 10.1 µM (inactive) | 14.2 µM (inactive) | 10.1 µM (inactive) | 21.7 µM (inactive) | 2.34 µM (inactive) | 10.8 µM (inactive) | 18.1 µM (inactive) | – | – | –
COc1ccc(/C=C/c2ccnc3ccccc23)cc1 | 6.78 µM (inactive) | 19.1 µM (inactive) | 14.5 µM (inactive) | 13.1 µM (inactive) | 14.1 µM (inactive) | 17.7 µM (inactive) | 15.3 µM (inactive) | 16.7 µM (inactive) | – | 16.8 µM (inactive) | 4.66 µM (inactive) | 20.3 µM (inactive) | 23.6 µM (inactive) | 12.2 µM (inactive) | 16.6 µM (inactive) | 10.4 µM (inactive) | 3.03 µM (inactive) | 19.3 µM (inactive) | 15.6 µM (inactive) | 15.7 µM (inactive)
OC[C@@H](O)[C@H]1NC[C@@H](O)[C@H]1O | > 100 µM (inactive) | > 100 µM (inactive) | > 100 µM (inactive) | > 100 µM (inactive) | > 100 µM (inactive) | > 100 µM (inactive) | > 100 µM (inactive) | > 100 µM (inactive) | – | > 100 µM (inactive) | > 100 µM (inactive) | – | > 100 µM (inactive) | > 100 µM (inactive) | > 100 µM (inactive) | > 100 µM (inactive) | > 100 µM (inactive) | > 100 µM (inactive) | > 100 µM (inactive) | > 100 µM (inactive)
COC(=O)[C@@H]1CN(C(=O)Cc2ccccc2)C(=O)N1 | > 100 µM (inactive) | – | > 100 µM (inactive) | > 100 µM (inactive) | > 100 µM (inactive) | > 100 µM (inactive) | > 100 µM (inactive) | > 100 µM (inactive) | > 100 µM (inactive) | > 100 µM (inactive) | > 100 µM (inactive) | – | > 100 µM (inactive) | > 100 µM (inactive) | – | > 100 µM (inactive) | > 100 µM (inactive) | > 100 µM (inactive) | – | > 100 µM (inactive)
CO/C(=N\N=C\c1ccc(Cl)c(Cl)c1)c1ccncc1 | > 10 µM (inactive) | > 10 µM (inactive) | > 10 µM (inactive) | – | – | > 10 µM (inactive) | – | > 10 µM (inactive) | – | > 10 µM (inactive) | 4.26 µM (inactive) | > 10 µM (inactive) | > 10 µM (inactive) | > 10 µM (inactive) | > 10 µM (inactive) | – | – | > 10 µM (inactive) | > 10 µM (inactive) | > 10 µM (inactive)
O=C(/C=C1/Nc2ccc([N+](=O)[O-])cc2N/C1=C/C(=O)c1ccc(Cl)cc1)c1ccccc1 | – | 58.7 µM (inactive) | – | > 100 µM (inactive) | 35.6 µM (inactive) | – | > 100 µM (inactive) | > 100 µM (inactive) | 35 µM (inactive) | > 100 µM (inactive) | – | 19.9 µM (inactive) | 32 µM (inactive) | > 100 µM (inactive) | > 100 µM (inactive) | > 100 µM (inactive) | > 100 µM (inactive) | 23.8 µM (inactive) | > 100 µM (inactive) | 56.9 µM (inactive)
CCCCCCOC(=O)/C=C/[C@]1(CO)C/C(=C/CC(C(C)C)C(C)C)C(=O)O1 | 2.7 µM (inactive) | 18.2 µM (inactive) | 10.4 µM (inactive) | 1.28 µM (inactive) | 4.82 µM (inactive) | 12.5 µM (inactive) | 16.5 µM (inactive) | 12.2 µM (inactive) | – | – | 12.1 µM (inactive) | 16.2 µM (inactive) | 1.74 µM (inactive) | 1.58 µM (inactive) | 1.39 µM (inactive) | 7.33 µM (inactive) | 19.1 µM (inactive) | 18.2 µM (inactive) | 16 µM (inactive) | 13.2 µM (inactive)
O=C(/C=C/c1ccccc1)c1ccccn1 | – | 27.4 µM (inactive) and 38.5 µM (inactive) | 17 µM (inactive) and 26.2 µM (inactive) | 22 µM (inactive) and 18.1 µM (inactive) | 13 µM (inactive) and 17.5 µM (inactive) | 18.7 µM (inactive) and 29.8 µM (inactive) | 13.2 µM (inactive) and 16.4 µM (inactive) | – | – | 18.6 µM (inactive) and 22.2 µM (inactive) | 19.1 µM (inactive) | 19.2 µM (inactive) | 16.7 µM (inactive) and 21.3 µM (inactive) | 23.8 µM (inactive) | 16.9 µM (inactive) and 27.2 µM (inactive) | 20.7 µM (inactive) and 15.5 µM (inactive) | 17.3 µM (inactive) and 20.6 µM (inactive) | 19.2 µM (inactive) and 18.6 µM (inactive) | 16 µM (inactive) | –
CCCN(CCC)CCc1ccc(OC2=CCN(C)CC2)cc1 | 35.8 µM (inactive) | > 100 µM (inactive) | 35.3 µM (inactive) | > 100 µM (inactive) | – | > 100 µM (inactive) | 20.3 µM (inactive) | 13.8 µM (inactive) | > 100 µM (inactive) | 50.6 µM (inactive) | – | > 100 µM (inactive) | – | 43.3 µM (inactive) | 36.6 µM (inactive) | 16 µM (inactive) | > 100 µM (inactive) | > 100 µM (inactive) | > 100 µM (inactive) | 39.8 µM (inactive)
CC(=O)O[C@H]1CC[C@]2(C=O)[C@H]3CC[C@]4(C)[C@@H](C5=CC(=O)OC5)CC[C@]4(O)[C@@H]3CC[C@]2(O)C1 [STROPHANTHIDIN ACETATE] | 0.344 µM (active) | 0.222 µM (active) | 0.774 µM (active) | 0.225 µM (active) | 0.264 µM (active) | 0.264 µM (active) | 0.362 µM (active) | 0.231 µM (active) | 0.769 µM (active) | 0.378 µM (active) | 0.424 µM (active) | 0.324 µM (active) | 0.0578 µM (active) | 0.0262 µM (active) | 0.282 µM (active) | 0.212 µM (active) | 0.0998 µM (active) | – | – | 0.11 µM (active)
O=C(Cc1ccccc1)NN1C(=O)/C(=C\c2cccc(O)c2)S/C1=N\c1ccccc1 | – | > 100 µM (inactive) | > 100 µM (inactive) | > 100 µM (inactive) | > 100 µM (inactive) | > 100 µM (inactive) | > 100 µM (inactive) | – | 45.8 µM (inactive) | > 100 µM (inactive) | – | > 100 µM (inactive) | > 100 µM (inactive) | – | > 100 µM (inactive) | > 100 µM (inactive) | > 100 µM (inactive) | > 100 µM (inactive) | > 100 µM (inactive) | > 100 µM (inactive)
O=S(=O)(O)c1cc(S(=O)(=O)O)c2cc(/N=N/c3c(O)ccc4ccccc34)ccc2c1 | > 100 µM (inactive) | > 100 µM (inactive) | > 100 µM (inactive) | > 100 µM (inactive) | – | > 100 µM (inactive) | > 100 µM (inactive) | 50.7 µM (inactive) | > 100 µM (inactive) | > 100 µM (inactive) | > 100 µM (inactive) | > 100 µM (inactive) | – | > 100 µM (inactive) | > 100 µM (inactive) | > 100 µM (inactive) | > 100 µM (inactive) | > 100 µM (inactive) | – | > 100 µM (inactive)
Cc1ccc2c(=O)cc(Cc3csc4ccccc34)[nH]c2n1 | – | 67 µM (inactive) | 50.5 µM (inactive) | 29.2 µM (inactive) | 32.3 µM (inactive) | 40.7 µM (inactive) | 38.6 µM (inactive) | 12.4 µM (inactive) | 52.5 µM (inactive) | 26.7 µM (inactive) | – | 79.3 µM (inactive) | – | 38.3 µM (inactive) | 64.7 µM (inactive) | 35.1 µM (inactive) | 21.1 µM (inactive) | 25.3 µM (inactive) | 35.2 µM (inactive) | 28.8 µM (inactive)
COc1cc2c(cc1OCCCN1CCN(C)CC1)N=C[C@@H]1CCCN1C2=O | 1.41 µM (inactive) | 2.84 µM (inactive) | 1.9 µM (inactive) | 2.03 µM (inactive) | 2.34 µM (inactive) | 1.41 µM (inactive) | 2.5 µM (inactive) | 2.21 µM (inactive) | 2.18 µM (inactive) | 1.02 µM (active) | 0.75 µM (active) | 2.42 µM (inactive) | 2.82 µM (inactive) | 0.32 µM (active) | – | 1.74 µM (inactive) | 2.15 µM (inactive) | 1.87 µM (inactive) | 1.22 µM (inactive) | 2.7 µM (inactive)
O=c1[nH]nc(N/N=C\c2ccc(Cl)cc2)c2ccccc12 | > 100 µM (inactive) | 18.5 µM (inactive) | 23.3 µM (inactive) | 31.3 µM (inactive) | 30.3 µM (inactive) | 17.5 µM (inactive) | 21.4 µM (inactive) | 22 µM (inactive) | 22.3 µM (inactive) | 19.5 µM (inactive) | 16.9 µM (inactive) | 17.2 µM (inactive) | 20.3 µM (inactive) | 60.3 µM (inactive) | – | 29.5 µM (inactive) | 52.7 µM (inactive) | 25.4 µM (inactive) | 22.4 µM (inactive) | 28.2 µM (inactive)
COc1ccc(CNc2nc(NCc3ccc(OC)cc3)nc(NC3CCCC3)n2)cc1 | 3.34 µM (inactive) | 5.28 µM (inactive) | 10.9 µM (inactive) | 19.9 µM (inactive) | – | 4.14 µM (inactive) | 12 µM (inactive) | 8.53 µM (inactive) | 3.54 µM (inactive) | 3.05 µM (inactive) | – | – | 3.6 µM (inactive) | 4.59 µM (inactive) | – | 3.04 µM (inactive) | > 25.4 µM (inactive) | 0.665 µM (active) | 3.31 µM (inactive) | 2.64 µM (inactive)
